Source: patent US20250084094A1 (Vertex Pharmaceuticals Incorporated, priority 2021, published 2025)

Molecular target: T1, APOL1 (Homo sapiens, UniProt O14791)
T1 sequence (O14791 1-398 S342G/I384M): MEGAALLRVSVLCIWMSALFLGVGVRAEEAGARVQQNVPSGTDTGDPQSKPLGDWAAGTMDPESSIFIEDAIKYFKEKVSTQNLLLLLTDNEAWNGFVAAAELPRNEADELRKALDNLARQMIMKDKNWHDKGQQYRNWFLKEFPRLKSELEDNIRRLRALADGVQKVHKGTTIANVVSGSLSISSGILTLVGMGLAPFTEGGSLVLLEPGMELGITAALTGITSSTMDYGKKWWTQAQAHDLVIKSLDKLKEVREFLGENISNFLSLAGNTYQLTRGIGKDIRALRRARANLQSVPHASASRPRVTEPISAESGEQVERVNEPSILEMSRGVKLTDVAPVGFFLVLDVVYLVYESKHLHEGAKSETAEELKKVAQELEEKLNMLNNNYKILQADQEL
Experiment: MultiTox-Fluor Multiplex Cytotoxicity Assay in tet-inducible APOL1 T-REx-HEK293 cells
Assay type: cell-based
Details: tet-inducible transgenic APOL1 T-REx-HEK293 cell lines, 50 ng/mL tet, 24 hours, ratio of dead to live cells; read-out: IP50 (nM) (i.e., IC50 for cell proliferation)
Procedure: The MultiTox-Fluor Multiplex Cytotoxicity Assay is a single-reagent-addition, homogeneous, fluorescence assay that measures the number of live and dead cells simultaneously in culture wells. The assay measures cell viability and cytotoxicity by detecting two distinct protease activities. The live-cell protease activity is restricted to intact viable cells and is measured using a fluorogenic, cell-permeant peptide glycyl-phenylalanylamino fluorocoumarin (GF-AFC) substrate. The substrate enters intact cells, where it is cleaved to generate a fluorescent signal proportional to the number of living cells. […] A second, cell-impermeant, fluorogenic peptide substrate (bis-AAF-R110 Substrate) is used to measure dead-cell protease that has been released from cells that have lost membrane integrity. A ratio of dead to live cells is used to normalize data.
Briefly, the tet-inducible transgenic APOL1 T-REx-HEK293 cell lines were incubated with 50 ng/mL tet to induce APOL1 in the presence of 3-(2-(4-fluorophenyl)-1H-indol-3-yl)-N-((3S,4R)-4-hydroxy-2-oxopyrrolidin-3-yl)propenamide at 10.03, 3.24, 1.13, 0.356, 0.129, 0.042, 0.129, 0.0045, 0.0015, 0.0005 μM in duplicate for 24 hours in a humidified 37° C. incubator. The MultiTox reagent was added to each well and placed back in the incubator for an additional 30 minutes. The plate was read on the EnVision plate reader. A ratio of dead to live cells was used to normalize, and data was imported, analyzed, and fit using Genedata Screener (Basel, Switzerland) software. Data was normalized using percent of control, no tet (100% viability), and 50 ng/mL tet treated (0% viability),and fit using Smart Fit. The reagents, methods, and complete protocol for the MultiTox assay are described below.
Human embryonic kidney (HEK293) cell lines containing a tet-inducible expression system (T-REx™; Invitrogen, Carlsbad, CA) and Adeno-associated virus site 1 pAAVS1-Puro-APOL1 G0 or pAAVS1-Puro-APOL1 G1 or pAAVS1-Puro-APOL1 G2 Clones G0 DC2.13, Gi DC3.25, and G2 DC4.44 were grown in a T-225 flask at ˜90% confluency in cell growth media (DMEM, 10% Tet-free FBS, 2 mM L-glutamine, 100 Units/mL penicillin-streptomycin, 5 μg/mL blasticidin S HCl, 1 μg/mL puromycin dihydrochloride). Cells were washed with DPBS and then trypsinized to dissociate from the flask. Media was used to quench the trypsin, cells were then pelleted at 200 g and resuspended in fresh cell assay media (DMEM, 2% Tet-free FBS, 2 mM L-glutamine, 100 Units/mL penicillin-streptomycin). Cells were counted and diluted to 1.17×10^6 cells/mL. 20 μL of cells (23,400/well) were dispensed in every well of a 384-well Poly-D-Lysine coated plate using the Multidrop dispenser. The plates were then incubated at room temperature for one hour.
Tetracycline is needed to induce APOL1 expression. 1 mg/mL tet stock in water was diluted to 250 ng/mL (5×) in cell assay media. 60 μL of cell assay media (no tet control) was dispensed in columns 1 and 24, and 60 μL of 5× tet in 384-PP-round bottom plate was dispensed in columns 2 to 23 with the Multidrop dispenser.
Assay ready plates from the Global Compound Archive were ordered using template 384_APOLICell_DR10n2_50 uM_v3. Compounds were dispensed at 200 nL in DMSO. The final top concentration was 10 μM with a 10 point 3-fold dilution in duplicate in the MultiTox assay.
20 μL was transferred from the 5× tet plate to the ARP and mixed, then 5 μL of 5× tet and the compounds were transferred to the cell plate and mixed using the Bravo. The cell plate was placed in the humidified 37° C. 5% CO2 incubator for 24 hours.
The MultiTox-Fluor Multiplex Cytotoxicity Assay was performed in accordance with the manufacturer's protocol. After cells were incubated with tet and compound for 24 hours, 25 μL of 1x MultiTox reagent was added to each well using the Multidrop dispenser; the plates were placed on a plate shaker (600 rpm) for 2 minutes, then centrifuged briefly and placed back in the 37° C. incubator for 30 minutes. […]

Row | Compound | IC50 [nM]
1 | C[C@H]1CC2(C[C@@H](c3cn(C)nn3)N1)OC(C(N)=O)c1cc(Cl)ccc12 (single isomer, unassigned) [Compound 40, (2′S,6′S)-6-chloro-2′-methyl-6′-(1-methyltriazol-4-yl)spiro[1H-isobenzofuran-3,4′-piperidine]-1-carboxamide] | 50 to 500
2 | C[C@H]1CC2(C[C@@H](c3cn(C)nn3)N1)OC(C(N)=O)c1ccc(Cl)cc12 (single isomer, unassigned) [Compound 42, (2′S,6′S)-5-chloro-2′-methyl-6′-(1-methyltriazol-4-yl)spiro[1H-isobenzofuran-3,4′-piperidine]-1-carboxamide] | 50 to 500
3 | C[C@H]1C[C@@]2(C[C@@H](c3cn(C)nn3)N1)OCCc1cc(O)c(Cl)cc12 [Compound 1] | > 500
4 | C[C@H]1C[C@@]2(C[C@@H](c3cn(C)nn3)N1)OCCc1ccc(Cl)c(O)c12 [Compound 2] | < 50
5 | C[C@H]1C[C@@]2(C[C@@H](c3cnn(CCS(C)(=O)=O)c3)N1)OCCc1cc(O)c(Cl)cc12 [Compound 3] | > 500
6 | C[C@H]1C[C@@]2(C[C@@H](c3ccn(CCS(C)(=O)=O)c3)N1)OCCc1ccc(Cl)c(O)c12 [Compound 4] | 50 to 500
7 | COc1ccc2c(c1)CCO[C@@]21C[C@@H](c2cn(C)nn2)N[C@@H](C)C1 [Compound 5] | < 50
8 | COc1cccc2c1[C@]1(C[C@@H](c3cn(C)nn3)N[C@@H](C)C1)OCC2 [Compound 6] | > 500
9 | C[C@H]1C[C@@]2(C[C@@H](c3cn(C)nn3)N1)OCCc1cc(O)ccc12 [Compound 7] | 50 to 500
10 | C[C@H]1C[C@@]2(C[C@@H](c3cn(C)nn3)N1)OCCc1cccc(O)c12 [Compound 8] | 50 to 500
11 | C[C@H]1C[C@@]2(C[C@@H](c3cn(C)nn3)N1)OCCc1cc(Br)ccc12 [Compound 9] | < 50
12 | C[C@H]1C[C@@]2(C[C@@H](c3cn(C)nn3)N1)OCCc1ccc(Cl)cc12 [Compound 10] | < 50
13 | C[C@H]1C[C@@]2(C[C@@H](c3cn(C)nn3)N1)OCCc1ccc(C#N)cc12 [Compound 11] | 50 to 500
14 | C[C@H]1C[C@@]2(C[C@@H](c3cn(C)nn3)N1)OCCc1ccccc12 [Compound 12] | < 50
15 | CCc1ccc2c(c1)[C@]1(C[C@@H](c3cn(C)nn3)N[C@@H](C)C1)OCC2 [Compound 13, (1S,2′S,6′S)-7-ethyl-2′-methyl-6′-(1-methyl-1H-1,2,3-triazol-4-yl)spiro[isochromane-1,4′-piperidine]] | < 50
16 | C[C@H]1C[C@@]2(C[C@@H](c3cn(C)nn3)N1)OCCc1cc(OS(=O)(=O)C(F)(F)F)ccc12 [Compound 14] | 50 to 500
17 | C[C@H]1C[C@@]2(C[C@@H](c3cn(C)nn3)N1)OCCc1cc(Cl)ccc12 [Compound 15] | < 50
18 | Cc1ccc2c(c1)CCO[C@@]21C[C@@H](c2cn(C)nn2)N[C@@H](C)C1 [Compound 16] | < 50
19 | CCc1ccc2c(c1)CCO[C@@]21C[C@@H](c2cn(C)nn2)N[C@@H](C)C1 [Compound 17] | < 50

Row | Compound | IC50 [nM]
20 | CC(C)c1ccc2c(c1)CCO[C@@]21C[C@@H](c2cn(C)nn2)N[C@@H](C)C1 [Compound 18] | < 50
21 | COC(=O)c1ccc2c(c1)CCO[C@@]21C[C@@H](c2cn(C)nn2)N[C@@H](C)C1 [Compound 19] | > 500
22 | C[C@H]1C[C@@]2(C[C@@H](c3cn(C)nn3)N1)OCCc1cc(C(C)(C)O)ccc12 [Compound 20] | 50 to 500
23 | C[C@H]1C[C@@]2(C[C@@H](c3cn(C)nn3)N1)OCCc1cc(C#N)ccc12 [Compound 21] | 50 to 500
24 | C[C@H]1C[C@@]2(C[C@@H](c3cn(C)nn3)N1)OCCc1cc(CO)ccc12 [Compound 22] | > 500
25 | C[C@H]1C[C@@]2(C[C@@H](c3cn(C)nn3)N1)OCCc1cc(C(F)(F)F)ccc12 [Compound 23] | < 50
26 | CC1CC2(CC(c3cnn(CCS(C)(=O)=O)c3)N1)OCCc1ccc(Cl)cc12 (stereo not shown) [Compound 24] | 50 to 500
27 | C[C@H]1C[C@@]2(C[C@@H](c3cn(C)nn3)N1)OC[C@@H](O)c1cc(Cl)ccc12 [Compound 25] | < 50
28 | C[C@H]1C[C@@]2(C[C@@H](c3cn(C)nn3)N1)OC[C@H](O)c1cc(Cl)ccc12 [Compound 26] | < 50
29 | C[C@H]1C[C@@]2(C[C@@H](c3cn(C)nn3)N1)OC[C@@H](O)c1cc(C(F)(F)F)ccc12 [Compound 27, (1S,2′S,4S,6′S)-2′-methyl-6′-(1-methyl-1H-1,2,3-triazol-4-yl)-6-(trifluoromethyl)spiro[isochromane-1,4′-piperidin]-4-ol] | < 50
30 | C[C@H]1C[C@@]2(C[C@@H](c3cn(C)nn3)N1)OC[C@H](O)c1cc(C(F)(F)F)ccc12 [Compound 28, (1S,2′S,4R,6′S)-2′-methyl-6′-(1-methyl-1H-1,2,3-triazol-4-yl)-6-(trifluoromethyl)spiro[isochromane-1,4′-piperidin]-4-ol] | < 50
31 | C[C@H]1C[C@@]2(C[C@@H](c3cn(C)nn3)N1)OCC(O)c1ccc(Cl)cc12 (stereo partly shown) [Compound 29] | 50 to 500
32 | C[C@H]1C[C@@]2(C[C@@H](c3cn(C)nn3)N1)OCC(O)c1ccc(Cl)cc12 (stereo partly drawn) [Compound 30, (1S,2′S,6′S)-7-chloro-2′-methyl-6′-(1-methyl-1H-1,2,3-triazol-4-yl)spiro[isochromane-1,4′-piperidin]-4-ol] | 50 to 500
33 | C[C@H]1C[C@]2(C[C@@H](c3cn(C)nn3)N1)C(=O)Nc1ccccc12 [Compound 31, (2′S,3R,6′S)-2′-methyl-6′-(1-methyltriazol-4-yl)spiro[indoline-3,4′-piperidine]-2-one] | > 500
34 | C[C@H]1C[C@@]2(C[C@@H](c3cn(C)nn3)N1)C(=O)Nc1ccccc12 [Compound 32, (2′S,3S,6′S)-2′-methyl-6′-(1-methyltriazol-4-yl)spiro[indoline-3,4′-piperidine]-2-one] | < 50
35 | Cc1ccc2c(c1)NC(=O)[C@@]21C[C@@H](c2cn(C)nn2)N[C@@H](C)C1 [Compound 33, (2′S,3S,6′S)-2′,6-dimethyl-6′-(1-methyltriazol-4-yl)spiro[indoline-3,4′-piperidine]-2-one] | < 50
36 | Cc1ccc2c(c1)[C@]1(C[C@@H](c3cn(C)nn3)N[C@@H](C)C1)C(=O)N2 [Compound 34, (2′S,3S,6′S)-2′,5-dimethyl-6′-(1-methyltriazol-4-yl)spiro[indoline-3,4′-piperidine]-2-one] | < 50
37 | C[C@H]1C[C@@]2(C[C@@H](c3cn(C)nn3)N1)C(=O)Nc1ccc(Cl)cc12 [Compound 35, (2′S,3S,6′S)-5-chloro-2′-methyl-6′-(1-methyltriazol-4-yl)spiro[indoline-3,4′-piperidine]-2-one] | < 50
